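The compound was tested at five concentrations on cells cultured in 96-well plates, with a 48-hour exposure period. TGI denotes the concentration required for complete inhibition of growth.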
Columns and labels:
Assay in all cases: NCI tumour cell line growth inhibition, 48 h
[1] = test system: KM20L2 colon
[2] = test system: LXFL 529 NSCLC
[3] = test system: SNB-78 CNS
[4] = test system: XF 498 CNS
[5] = test system: DLD-1 colon
[6] = test system: DMS 114 small cell lung
[7] = test system: HOP-18 NSCLC
[8] = test system: P388 leukemia
[9] = test system: P388/ADR leukemia
[10] = test system: SN12K1 renal
[11] = test system: RXF-631 renal

Row | SMILES | TGI [1] | TGI [2] | TGI [3] | TGI [4] | TGI [5] | TGI [6] | TGI [7] | TGI [8] | TGI [9] | TGI [10] | TGI [11]
1 | CC[S+](C)c1ccc(-c2c3nc(c(-c4ccc([S+](C)CC)cc4)c4ccc([nH]4)c(-c4ccc([S+](C)CC)cc4)c4nc(c(-c5ccc([S+](C)CC)cc5)c5ccc2[nH]5)C=C4)C=C3)cc1 (stereo not drawn) | > 100 µM | > 100 µM | > 100 µM | 8.31 µM |  |  |  |  |  |  | 
2 | CCc1c(-c2coc(CC/C(C)=C/c3ccccc3)n2)oc(OC)c(C)c1=O | > 54.6 µM | > 55.5 µM | > 100 µM | 75.4 µM | > 65.6 µM | 29.2 µM | > 100 µM |  |  |  | 
3 | C=CC[C@@]1(C#N)C[C@H](C[C@]2(C#N)C[C@H](CCl)OC(C)(C)O2)OC(C)(C)O1 | > 100 µM |  |  | > 100 µM | > 100 µM | > 100 µM | > 100 µM |  |  |  | 
4 | Cc1cc(C)c(N)c(C)c1N | > 100 µM | > 100 µM | > 100 µM |  | > 100 µM | > 100 µM | > 100 µM |  |  |  | 
5 | CC1=NN(C(=O)c2ccccc2)C(=O)C1N=Nc1ccccc1C(=O)O (stereo not drawn) | > 100 µM |  |  | 69.9 µM | > 100 µM | > 100 µM | > 100 µM | > 46300 nM | > 44.7 µM | > 100 µM | 
6 | Cn1nc2ccc3nccc(NCCNCCCl)c3c2n1 | > 100 µM | > 100 µM |  | > 100 µM | > 100 µM | > 100 µM |  |  |  |  | 
7 | N/C(=N\N=C/c1cc(Cl)cc(Cl)c1O)NO | 30.2 µM |  | > 100 µM | 6.45 µM | > 100 µM |  | > 100 µM | 1490 nM |  | 6.93 µM | 
8 | COc1cc(C2c3cc4c(cc3[C@@H](Nc3ccc(N5CCOCC5)cc3)C3COC(=O)[C@H]23)OCO4)cc(OC)c1O (stereo partly drawn) | 3.91 µM |  |  | 4.23 µM | 4.12 µM |  | 6.67 µM | 1010 nM | 1.07 µM | 3.6 µM | 
9 | CCOC(=O)C1CCn2c(nc3c(=O)n(C)c(=O)n(C)c32)S1 (stereo not drawn) | > 100 µM | > 100 µM | > 100 µM |  | > 100 µM |  | > 100 µM |  |  |  | > 100 µM
10 | CCOC(=O)CCc1c(C)c2c(O)cc(O)cc2oc1=O | > 100 µM |  | > 100 µM | > 100 µM | > 100 µM |  | > 100 µM | > 100000 nM | > 100 µM | > 100 µM | 
11 | CCOC(=O)CC(=Nc1cc(C)on1)N(CC)CC | > 100 µM | > 100 µM | > 100 µM | > 100 µM | > 100 µM | > 100 µM |  |  |  |  | 
12 | O=C(NN1C(=O)C(Cl)C1c1ccc([N+](=O)[O-])cc1)c1ccccc1O (stereo not drawn) | > 100 µM | > 100 µM |  | > 100 µM |  | > 100 µM |  |  |  |  | 
13 | Cc1ccc(C(=O)NC(C)C)cc1N=NN(C)C | > 100 µM | > 100 µM | > 100 µM |  | > 100 µM |  |  |  |  |  | 
14 | COc1ccc2c(c1)Cc1c-2[nH]c2cc3c(cc2c1=O)OCO3 | 35 µM | > 100 µM | > 100 µM | 38.3 µM | 41.7 µM | 17.9 µM | 58.2 µM |  |  |  | 
15 | Nc1nc(SCc2ccccc2[N+](=O)[O-])c2[nH]cnc2n1 | > 100 µM | > 100 µM | > 100 µM |  | > 100 µM |  |  |  |  |  | 
